From patent US20120183580A1, “Analgesic Composition for Transbuccal Administration” (priority 2011, published 2012)
Read-outs that look alike come from different tables or passages of the source. Where a SMILES comes first, the peptide text is derived from it.

Legend:
[1] = cited from earlier work; for bioavailability by the sublingual route: oxytocin in physiological saline solution
rats [2] = assay: elevated-plus maze test; conditions: rat, in vivo
Excerpt: Two opposite arms of the elevated-plus maze are enclosed by high walls (closed arms) while the other two are not (open arms). The test animals (rats) naturally prefer and spend more time in the closed aims.

Swiss albino mice [3] = system: Swiss albino mice
Experimental: Swiss albino mice (˜30-40 g) were first placed into their respective chambers with a 20 min pre-treatment recording. Only mice showing at least 50 counts/5 min are used in the experiments. Mice were administered saline (control), peptide (5 or 50 mg/kg) or morphine (50 mg/kg). Experimenters were blind to the identity of the drug solutions. […] Statistical comparison was done by 2-way ANOVA.

Swiss albino mice [4] = conditions: mouse, in vivo
Experimental: Swiss albino mice (30-35 g) were injected with saline, the peptide (5 mg/kg, 50 mg/kg intraperitoneal) or morphine (0.5 mg/kg, 5 mg/kg, 50 mg/kg intraperitoneal). The experimenters are blind to the identity of the solutions. All mice were administered 5 mg charcoal (0.1 ml of 50 mg/ml charcoal solution) via oral gavage immediately after drug administration. At 30 min post-drug/charcoal administration, the mice were sacrificed by cervical dislocation and the GI tract was exposed and the location of the charcoal identified. The distance the charcoal traveled in the intestine from the stomach was measured and expressed as % of total length of the GI tract.

Swiss albino mice [5] = system: Swiss albino mice; remark: listed apart in the source
Experimental: Swiss albino mice (˜20-30 g) were first trained on the rotarod, which accelerated from 0-20 rpm over 5 min, prior to the experiment. Only mice that were capable of staying on the rotarod for the entire 5 min period were used in this experiment. Mice were either administered with the peptide (1 or 10 mg/kg, sublingual), or morphine (20 mg/kg, subcutaneous). After drug administration, the animals are placed on the rotarod and the time taken for the mice to slip was recorded (up to 5 min), and subsequently at 1 h, 2 h and 3 h post peptide, and at 30 min, 1 h 30 min and 2 h 30 min post morphine. Statistical comparison was done by either Student's t-test or one-way ANOVA.

Swiss albino mice [6] = assay: toxicity, multiple dose regimen; type: in vivo; conditions: 8 or 80 mg/kg intraperitoneal daily, 14 days
Experimental: (§1) Swiss albino mice were administered with the peptide at 8 mg/kg or 80 mg/kg (intraperitoneal) once daily for 14 days. Control mice received saline. At the end of the period, all mice were killed, dissected and observed for any obvious abnormality. Weights of the major organs, including brain, heart, lung, liver, spleen and kidney, were recorded.

C57 mice = type: in vivo; conditions: 8 or 80 mg/kg intraperitoneal once daily for 14 days
Experimental: as §1
The multiple dose toxicity testing was repeated exactly as described above except that C57 mice were used instead of Swiss albino mice. Similar results were obtained in terms of body weights, vital organ weights and behavior of control and treated animals (data not shown).

rats [7] = conditions: 1 or 50 mg/kg intraperitoneal, vs saline control
Excerpt: The open field was divided into 16 equal size squares (25×25 cm). The 4 squares at the centre are assigned a low anxiety score (0) while those at the 4 corners are assigned a high anxiety score (2). The remaining 8 squares are assigned a medium score (1). A rat entering each square will be given the score assigned to that square. The sum total obtained within the 5-min test period divided by the number of squares entered is the anxiety score for that rat. Diazepam was used as positive control. Statistical comparison was done by Student's t-test.

Swiss albino mice [8] = assay: toxicity, single dose regimen; type: in vivo; conditions: single dose 8 or 80 mg/kg intraperitoneal, day 14
Experimental: as §1, with “on day 1 and then observed” for “once daily”, “sacrificed,” for “killed,”

Sprague-Dawley rats = assay: acute effect on blood pressure in anesthetized rats; type: in vivo; conditions: for effect on blood pressure: 5 and 20 mg/kg
Experimental: Sprague-Dawley rats (˜300 g) were anesthetized and the carotid artery was cannulated for blood pressure measurement. Drugs were administered by the pre-determined route. A pulse transducer was secured across the thoracic region of the rat to allow measurement of respiration rate. Blood pressure was recorded for at least 15 min or until a relatively stable blood pressure was observed.

mice = assay: acute high dose toxicity; type: in vivo
Experimental: (§2) Acute toxicity was determined by both oral and intravenous administration of the peptide. Three mice were given a dose of peptide at 2 g/kg orally by gavage, 5 ml/kg.

acute high dose toxicity = type: in vivo, mice; conditions: mouse, in vivo; intravenous, mice
Experimental: as §2

[9] = pharmacokinetics: plasma concentration by LC/MS/MS after sublingual, intravenous, oral, intraperitoneal administration; type: in vivo, mice; conditions: mouse
Experimental: The peptide (1, 5, 15 and 25 mg/kg, 0.5 ml/kg) was administered sublingually to mice. Upon reaching specified time points of 1, 5, 15, 30, 60 and 120 min post-dose, each mouse was sacrificed and blood samples were collected via cardiac puncture. Plasma samples were then extracted and analyzed under LC/MS/MS.
Systemic exposure of the peptide was also studied through intravenous, oral (gavage) and intraperitoneal routes.

## NC(=O)CC[C@@H]1NC(=O)[C@H](Cc2ccccc2)NC(=O)[C@H](Cc2ccc(O)cc2)NC(=O)CCSSC[C@@H](C(=O)N2CCC[C@H]2C(=O)N[C@H](CCCN=C(N)N)C(=O)NCC(N)=O)NC(=O)[C@H](CC(N)=O)NC1=O [desmopressin]
[1]
  bioavailability by the sublingual route: about 0.25%

## CN1C(=O)CN=C(c2ccccc2)c2cc(Cl)ccc21 [diazepam]
Rats [2]
  time spent in the open or closed arms: reversed the times spent in open and closed arms

## CN1CC[C@]23c4c5ccc(O)c4O[C@H]2[C@@H](O)C=C[C@H]3[C@H]1C5 [morphine, reference compound]
Swiss albino mice [3]; mouse, in vivo
  locomotor activity vs control: significant increase in locomotive activities
Swiss albino mice [4]
  GI motility (distance traveled by charcoal): dose-dependently decreased GI motility
Swiss albino mice [5]; mouse, in vivo
  motor-coordination (time on rotarod): No statistical significant effects

## CC[C@H](C)[C@@H]1NC(=O)[C@H](Cc2ccc(O)cc2)NC(=O)[C@@H](N)CSSC[C@@H](C(=O)N2CCC[C@H]2C(=O)N[C@@H](CC(C)C)C(=O)NCC(N)=O)NC(=O)[C@H](CC(N)=O)NC(=O)[C@H](CCC(N)=O)NC1=O [oxytocin]
[1]; formulation including 0.75% w/w sodium taurocholate (tablet form)
  bioavailability: 27%
[1]
  bioavailability by the sublingual route: 0.007-0.07%

## C[C@@H](O)[C@H](NC(=O)[C@@H]1CCCN1C(=O)[C@H](Cc1ccccc1)NC(=O)[C@@H]1CCCN1C(=O)[C@@H](N)CC(N)=O)C(=O)N[C@@H](Cc1c[nH]c2ccccc12)C(=O)N[C@@H](CCCNC(=N)N)C(=O)N[C@@H](CCCCN)C(=O)N[C@@H](CCCNC(=N)N)C(=O)N1CCC[C@H]1C(=O)NCC(=O)O [the peptide, NPFPTWRKRPG] (H-NPFPTWRKRPG-OH; N-terminus and C-terminus assumed)
Swiss albino mice [3]; 5 or 50 mg/kg, within 4 h of drug administration
  locomotor activity vs control: no significant difference
Swiss albino mice [6]
  organ appearance: All organs appeared normal
C57 mice
  death: No death occurred
Rats [7]
  anxiety score: did not show any effect
Swiss albino mice [8]
  organ appearance: All organs appeared normal
Sprague-Dawley rats; intravenous route
  effect on blood pressure: decreased in blood pressure
Sprague-Dawley rats; sublingual or intraperitoneal routes
  effect on blood pressure: did not cause any changes in blood pressure
Sprague-Dawley rats; all experiments (5 and 20 mg/kg, all routes)
  heart rate and respiration rate: No significant changes
mice; 62.5 mg/kg intravenous
  clinical observation: appeared sedated
mice; 125 mg/kg intravenous
  clinical observation, surviving mice: appeared heavily sedated for several hours
mice; 2 g/kg oral by gavage
  clinical observation: appeared sedated with much decreased activity
Acute high dose toxicity
  LD50 at 2 weeks: ~125 mg/kg
Swiss albino mice [5]; 1 or 10 mg/kg sublingual, up to 3 h post-dose
  motor-coordination (time on rotarod): No statistical significant effects
[9]; 25 mg/kg, sublingual route, AUC compared to intravenous route
  bioavailability: 44%
[9]; after sublingual administration, read-out: time of highest level in the plasma (converted)
  Tmax: 5 min
